Data from patent publication US8778966B2, “Quinolinone derivatives as PARP and tank inhibitors” (Janssen Pharmaceutica, NV, priority 2007, dated 2014).

What was measured:
[1] = molecular target: T1, TANK-2 enzyme (Homo sapiens, UniProt Q9H2K2); test: In vitro Scintillation Proximity Assay (SPA) for TANK-2 inhibitory activity; assay type: biochemical; details: read-out: in vitro SPA assay TANK-2 pIC50 (converted)
T1 construct: made in house
T1 sequence (Q9H2K2 1-1166): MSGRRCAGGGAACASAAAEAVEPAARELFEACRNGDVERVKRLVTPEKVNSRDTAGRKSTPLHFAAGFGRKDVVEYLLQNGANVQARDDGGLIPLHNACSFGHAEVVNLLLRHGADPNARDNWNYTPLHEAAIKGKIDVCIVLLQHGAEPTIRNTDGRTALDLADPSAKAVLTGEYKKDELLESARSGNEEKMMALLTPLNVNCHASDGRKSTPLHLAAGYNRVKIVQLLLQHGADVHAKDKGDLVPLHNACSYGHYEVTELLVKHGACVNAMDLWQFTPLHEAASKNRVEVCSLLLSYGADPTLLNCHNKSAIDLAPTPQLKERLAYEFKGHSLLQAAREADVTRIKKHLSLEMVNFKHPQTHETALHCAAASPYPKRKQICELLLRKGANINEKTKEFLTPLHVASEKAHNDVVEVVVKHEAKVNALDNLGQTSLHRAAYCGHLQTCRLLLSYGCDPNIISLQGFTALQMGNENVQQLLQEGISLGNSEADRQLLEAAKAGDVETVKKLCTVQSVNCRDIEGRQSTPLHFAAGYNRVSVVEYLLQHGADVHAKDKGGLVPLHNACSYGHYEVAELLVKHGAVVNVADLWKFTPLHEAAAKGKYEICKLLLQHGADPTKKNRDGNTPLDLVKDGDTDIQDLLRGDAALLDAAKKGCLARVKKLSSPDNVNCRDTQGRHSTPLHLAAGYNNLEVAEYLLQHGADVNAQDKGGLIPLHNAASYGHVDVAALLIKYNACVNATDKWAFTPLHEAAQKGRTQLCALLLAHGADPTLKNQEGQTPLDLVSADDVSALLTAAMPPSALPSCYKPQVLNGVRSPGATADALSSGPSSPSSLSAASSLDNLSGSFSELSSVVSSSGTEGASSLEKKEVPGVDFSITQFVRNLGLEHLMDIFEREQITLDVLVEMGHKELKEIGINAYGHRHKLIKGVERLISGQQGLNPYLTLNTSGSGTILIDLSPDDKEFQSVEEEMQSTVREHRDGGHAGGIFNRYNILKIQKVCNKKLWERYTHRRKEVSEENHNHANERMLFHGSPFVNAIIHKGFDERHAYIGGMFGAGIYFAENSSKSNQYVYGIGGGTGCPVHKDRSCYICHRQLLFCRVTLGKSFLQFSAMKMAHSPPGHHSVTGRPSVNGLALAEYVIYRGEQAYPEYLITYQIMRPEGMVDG
Summary of the method: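 Results are pIC50 values, with IC50 interpolated linearly around 50% of blank-subtracted control cpm. They come from a scintillation proximity read of TANK-2 (8 μg/ml) self-modification with [3H]-NAD+/NAD, incubated 120 min at room temperature in pH 7.4 Tris buffer containing MgCl2 and DTT. Compounds were first screened at 10^−5 M.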

[2] = test system: PC3 cells; test: EB1 Comet (microtubule disruption) assay; assay type: cell-based, human; details: Homo sapiens, PC-3, 1 h, 1 hour treatment, read-out: EB1 pLAC (converted)
Summary of the method: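 Readout is loss of Eb1 plus-end foci, scored by immunofluorescence microscopy, in PC3 cells after 1 h compound treatment at 37 °C with 0.6% final DMSO. LAC is defined as the lowest concentration leaving at least 50% of cells without Eb1 foci.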

IC50 [1] [nM]	Structure (SMILES)	minimal effective concentration [2] [µM]
100	CCc1cc2ccc(C(C)(C#N)CCOc3ccccc3C)cc2[nH]c1=O (stereo not drawn) [Compound 148]	0.316
200	CCc1cc2ccc(C(C)(C#N)CCOc3cccc(Cl)c3)cc2[nH]c1=O (stereo not drawn) [Compound 151]	1
200	CCc1cc2ccc(C(C)(C#N)CCOc3ccc(Cl)cc3Cl)cc2[nH]c1=O (stereo not drawn) [Compound 154]	0.1
398	CCc1cc2ccc(C(C)(C#N)CC3CN(C)c4ccccc4O3)cc2[nH]c1=O (stereo not drawn) [Compound 156]	1
316	CCc1cc2ccc(C(C)(C#N)CCOc3ccc4ccccc4c3)cc2[nH]c1=O (stereo not drawn) [Compound 157]	0.1
501	CCc1cc2ccc(C(C)(C#N)CCOc3cccc4ccccc34)cc2[nH]c1=O (stereo not drawn) [Compound 158]	0.316
316	CCc1cc2ccc(C(C)(C#N)CCOc3ccc(Br)cc3)cc2[nH]c1=O (stereo not drawn) [Compound 160]	0.316
158	CCc1cc2ccc(C(C)(C#N)CCOc3ccc(C#N)cc3)cc2[nH]c1=O (stereo not drawn) [Compound 161]	0.316
79.4	CCc1cc2ccc(C(C)(C#N)Cc3cccc(CCC#N)c3)cc2[nH]c1=O (stereo not drawn) [Compound 165]	1
